Laboratory results taken from patent US20250161249A1, “USE OF PHENYLLACTIC ACID IN INHIBITING HELICOBACTER PYLORI INFECTION” (Zhejiang Gongshang University, priority 2022, published 2025).
≈ marks a conversion by molar mass, not a printed value. Where “and” joins values, the source holds several entries; their conditions need not be identical. Equal values may be shown once. Entries after “also recorded” stand apart in the source; their conditions may differ.

Experiments:
H. pylori ZJC03 [1] = assay: Antimicrobial susceptibility test of H. pylori ZJC03 (E-test paper); type: cell-based, Helicobacter pylori; settings: clinical strain H. pylori ZJC03, E-test paper
Procedure: The sensitivity of H. pylori ZJC03 was tested by using an E-text test paper.

H. pylori ZJC03 [2] = assay: Bacteriostasis experiment by Kirby-Bauer method (inhibition zone); type: cell-based, Helicobacter pylori; settings: 6 mm filter paper disk, 72 h
Procedure: Preparation of different concentrations of phenyllactic acid: phenyllactic acid was diluted two-fold to 40 mg/mL, 20 mg/mL, 10 mg/mL, 5 mg/mL, 2.5 mg/mL and 1.25 mg/mL. The solvent used for dilution was ultrapure water.
Preparation of antimicrobial susceptibility disks: filter paper was made into circular disks with a diameter of 6 mm, subjected to autoclaved sterilization for 15 min and dried. Each circular filter paper disk was completely soaked in phenyllactic acid solutions with different concentrations, and ultrapure water was taken as a blank control to obtain antimicrobial susceptibility disks with different concentrations.
Coating and culture: 100 μL of 10^8 CFU/mL of an H. pylori bacterial solution was evenly coated on a CBA medium and dried. Then the antimicrobial susceptibility disks with different concentrations of the phenyllactic acid were pasted on a plate by tweezers, and this operation was repeated 3 times for disks of each concentration. Then the plate was placed in a culture box (containing a microaerophilic gas-generating pack inside) and statically cultured at 37° C. for 72 h. The size of an inhibition zone (mm) was measured and the measurement result was recorded.

H. pylori [3] = assay: Determination of minimum inhibitory concentration (agar dilution method); type: cell-based, Helicobacter pylori; settings: 37° C., 48 h, microaerobic
H. pylori [4] = assay: Effects of sub-inhibitory concentrations on growth curves of H. pylori; type: cell-based, Helicobacter pylori
Procedure: According to the determination of the bacteriostatic ability, the effects of phenyllactic acid on growth curves were analyzed. An H. pylori suspension cultured overnight was inoculated into a sterilized modified Brucella broth medium. The concentration was adjusted such that the initial inoculum size of the bacteria was 1×10^8 CFU/mL. The phenyllactic acid was added at the final concentrations of ⅛ MIC, ¼ MIC, ½ MIC and MIC, and no drug was added to the control group. The mixed solution was placed in a microaerobic environment at 37° C. for 120 h, the OD560 value was determined every other 12 h, and the changes of the growth curves at sub-inhibitory concentrations were observed and recorded.

[5] = target: T1, urease activity of H. pylori ZJC03 (Helicobacter pylori, UniProt P69996); assay: Urease activity of H. pylori, phenol red method; type: biochemical; settings: co-cultured 48 h
T1 construct: A total of 50 μL of the H. pylori culture solution and 50 μL of the phenyllactic acid; endogenous in cells; host or cells: Helicobacter pylori ZJC03 (live culture, 1×10^8 CFU/mL)
T1 sequence (P69996 whole entry): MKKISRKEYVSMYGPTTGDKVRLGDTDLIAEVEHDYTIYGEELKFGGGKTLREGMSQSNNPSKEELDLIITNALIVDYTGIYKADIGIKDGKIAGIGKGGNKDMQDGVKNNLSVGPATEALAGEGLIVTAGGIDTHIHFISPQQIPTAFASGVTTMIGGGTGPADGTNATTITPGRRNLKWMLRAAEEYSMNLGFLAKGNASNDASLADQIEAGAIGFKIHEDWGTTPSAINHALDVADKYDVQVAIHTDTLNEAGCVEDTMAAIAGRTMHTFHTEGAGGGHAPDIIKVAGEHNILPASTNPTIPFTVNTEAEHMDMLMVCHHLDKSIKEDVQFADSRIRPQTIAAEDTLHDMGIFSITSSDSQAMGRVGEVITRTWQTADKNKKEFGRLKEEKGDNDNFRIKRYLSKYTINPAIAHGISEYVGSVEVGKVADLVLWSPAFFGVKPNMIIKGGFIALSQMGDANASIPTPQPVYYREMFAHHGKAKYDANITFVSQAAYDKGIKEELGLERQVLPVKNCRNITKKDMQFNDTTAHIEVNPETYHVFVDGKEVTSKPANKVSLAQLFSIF
T1 sequence (P14916 whole entry, further chain): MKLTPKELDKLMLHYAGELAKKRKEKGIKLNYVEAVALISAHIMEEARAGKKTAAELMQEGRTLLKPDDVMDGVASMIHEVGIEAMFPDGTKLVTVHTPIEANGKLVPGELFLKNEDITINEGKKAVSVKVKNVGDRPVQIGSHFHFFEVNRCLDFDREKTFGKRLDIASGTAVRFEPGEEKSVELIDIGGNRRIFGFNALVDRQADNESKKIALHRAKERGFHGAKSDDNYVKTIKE

H. pylori ZJC03 [6] = assay: Ultra microstructure observation (SEM, TEM, negative-stain TEM); type: cell-based, Helicobacter pylori; settings: at the MIC
[7] = tested on: gastric mucosal injury caused by H. pylori infection; assay: Histopathological observation (H&E) of gastric tissues of H. pylori infected mice; type: in vivo, C57BL/6J mice; settings: phenyllactic acid 0.8 mg/mL, 400 μL gavage daily 4 weeks, antibiotics 400 μL daily 10 days
Procedure: After one week of acclimation, mice were randomly divided into 4 groups: ZC, ZH, ZP and ZA. The mice in the groups were treated as follows: ZC group (15 mice): every mouse was gavaged once every other day with 400 μL of a modified Brucella broth medium for 2 weeks, followed by daily gavage of 400 μL of ultrapure water every day for 4 weeks. […] The bacterial content of the H. pylori ZJC03 suspension was 10^8 CFU/mL. After the molding, all the mice in each group were sacrificed by cervical dislocation. Gastric mucosa samples were washed with PBS and collected aseptically. The stomach contents were frozen in liquid nitrogen and subsequently stored at −80° C. for testing in Examples 8-10. The gastric mucosa was fixed in a 4% paraformaldehyde (PFA) buffer solution for 24 h at room temperature. After the treatment, the stomach tissue was embedded with an EG 1160 paraffin machine. The paraffin block was placed in an RM 2235 rotary microtome for sectioning (5 μm), and the sections were stained with hematoxylin and eosin (H&E). The stained sections were observed under a light microscope and photographed (NIKON Eclipse Ci, Japan); and the imaging system was: NIKON digital sight DS-FI2, and the photographic magnification was: 400× and 200×.

[8] = tested on: IFN-γ, IL-6, IL-1β and IL-10 in the stomach tissue; assay: RT-qPCR of inflammatory factors in gastric mucosal tissues of H. pylori infected mice; type: in vivo, C57BL/6J mice; settings: gavage
Procedure: After one week of acclimation, mice were randomly divided into 4 groups: ZC, ZH, ZP and ZA. The mice in the groups were treated as follows: […] After the molding, all the mice in each group were sacrificed by cervical dislocation. Gastric mucosa samples were washed with PBS and collected aseptically. The stomach contents were frozen in liquid nitrogen and subsequently stored at −80° C. for testing in Examples 8-10. The quantitative analysis of IFN-γ, IL-6, IL-1β and IL-10 in the stomach tissue was performed by RT-qPCR. Total RNA (100-500 ng/μL) was isolated from mouse stomach tissue samples according to the instructions of an RNA extraction kit, followed by reverse transcription of RNA into cDNA using the kit. The levels of each gene were normalized using GAPDH as an internal control. The RT-qPCR assay was performed according to the following thermal cycle program: pre-denaturation at 95° C. for 10 min, 40 cycles of 95° C. for 15 s and 60° C. for 30 s, and the melting curve was from 60° C. to 95° C. with a temperature increase of 0.3° C. every 15 s and the fluorescence signal was collected once, and a 2^−ΔΔCt method was used for calculation.

mouse gastric flora = assay: Gastric microbiota analysis by 16S rRNA gene sequencing in H. pylori infected mice; type: in vivo, C57BL/6J mice
Procedure: After one week of acclimation, mice were randomly divided into 4 groups: ZC, ZH, ZP and ZA. The mice in the groups were treated as follows:
ZP group (45 mice): every mouse was gavaged once every other day with 400 μL of the H. pylori ZJC03 bacterial suspension for 2 weeks, followed by daily gavage of 400 μL of phenyllactic acid (at the concentrations of 0.16 mg/mL, 0.32 mg/mL and 0.8 mg/mL respectively, and 15 mice for each concentration) every day for 4 weeks.
ZA group (15 mice): every mouse was gavaged once every other day with 400 μL of the H. pylori ZJC03 bacterial suspension for 2 weeks, followed by 10 days of gavage of combined antibiotics (at the dose of 400 μL per mouse per day), and after 10 days, each mouse continued to be gavaged with 400 μL of ultrapure water for 18 days.
After the molding, all the mice in each group were sacrificed by cervical dislocation. Gastric mucosa samples were washed with PBS and collected aseptically. The stomach contents were frozen in liquid nitrogen and subsequently stored at −80° C. for testing in Examples 8-10.
DNA samples were extracted from the gastric mucosa by a CTAB method, and the quality of DNA extraction was detected by agarose gel electrophoresis, and at the same time, the DNA was quantified by an ultraviolet spectrophotometer. The hypervariable regions V3-V4 of 16S rRNA of bacteria were amplified by using universal primers (341F and 805R). Paired-end sequencing of 2×250 bp was performed using a NovaSeq 6000 sequencer, and DNA extraction and sequencing were completed in the LC-Bio Technologies Co. Ltd.

[9] = gastric mucosa, ZP = 0.8 mg/mL phenyllactic acid, ZA = antibiotic treatment

Structure (SMILES): CC[C@H]1OC(=O)[C@H](C)[C@@H](O[C@H]2C[C@@](C)(OC)[C@@H](O)[C@H](C)O2)[C@H](C)[C@@H](O[C@@H]2O[C@H](C)C[C@H](N(C)C)[C@H]2O)[C@](C)(OC)C[C@@H](C)C(=O)[C@H](C)[C@@H](O)[C@]1(C)O [Clarithromycin]
- Sensitivity of H. pylori ZJC03 to antibiotics (H. pylori ZJC03 [1]): 0.8 µg/mL

Structure (SMILES): CN(C)[C@@H]1C(O)=C(C(N)=O)C(=O)[C@@]2(O)C(O)=C3C(=O)c4c(O)cccc4[C@@](C)(O)[C@H]3C[C@@H]12 [Tetracycline]
- Sensitivity of H. pylori ZJC03 to antibiotics (H. pylori ZJC03 [1]): 0.023 µg/mL

Structure (SMILES): Cc1ncc([N+](=O)[O-])n1CCO [Metronidazole]
- Sensitivity of H. pylori ZJC03 to antibiotics (H. pylori ZJC03 [1]): insensitive

Structure (SMILES): O=C(O)C(O)Cc1ccccc1 (stereo not shown) [phenyllactic acid, Phenyllactic acid]
- Inhibition zone diameter (H. pylori ZJC03 [2]; 1.25 mg/mL solution): no inhibition zone
- Inhibition zone diameter (H. pylori ZJC03 [2]; 2.5 mg/mL solution): 6.94 ± 0.95 mm
- Inhibition zone diameter (H. pylori ZJC03 [2]; 5 mg/mL solution): 7.51 ± 0.74 mm
- Inhibition zone diameter (H. pylori ZJC03 [2]; 10 mg/mL solution): 9.98±0.97 mm
- Inhibition zone diameter (H. pylori ZJC03 [2]; 20 mg/mL solution): 12.41 ± 0.14 mm
- Inhibition zone diameter (H. pylori ZJC03 [2]; 40 mg/mL solution): 15.35 ± 0.94 mm
- minimum inhibitory concentration (MIC) (H. pylori [3]): 2500 µg/mL (≈ 15 mM)
- growth of H. pylori (growth curve, OD560) (H. pylori [4]; MIC, 48 h, 72 h, 96 h and 120 h): completely inhibited; also recorded: significantly inhibited
- growth of H. pylori (growth curve, OD560) (H. pylori [4]; ¼ MIC): a certain bactericidal effect
- growth of H. pylori (growth curve, OD560) (H. pylori [4]; ½ MIC, 48 h, 72 h, 96 h and 120 h): significantly inhibited
- growth of H. pylori (growth curve, OD560) (H. pylori [4]; ⅛ MIC): basically not inhibited
- inhibitory effect on urease activity ([5]; at 0.25 MIC): no significant inhibitory effect
- inhibitory effect on urease activity ([5]; at 0.5 MIC): no significant inhibitory effect
- inhibition rate of urease activity ([5]; at 2 MIC): 80.13%±1.18%
- inhibition rate of urease activity ([5]; at the MIC): 43.01%+2.11% and 43.01%±2.11%
- bacterial cell morphology, negative-stain transmission electron microscopy (H. pylori ZJC03 [6]; 5-10 min): The flagella of the bacterial cells fell off
- bacterial cell internal structure, transmission electron microscopy (H. pylori ZJC03 [6]; 4 h): the cell walls were separated from the cell membranes
- bacterial cell morphology, scanning electron microscopy (H. pylori ZJC03 [6]; 4 h): most bacterial cells appeared to be disintegrated
- H&E histopathology of gastric mucosa [7]: the tissue structure was substantially normal; also recorded: inflammatory cells basically disappeared
- IFN-γ gene expression in gastric mucosa vs ZH modeling group [8]: significantly decreased; also recorded: significantly reduce
- IL-1β gene expression in gastric mucosa vs ZH modeling group [8]: significantly decreased; also recorded: significantly reduce
- IL-6 gene expression in gastric mucosa vs ZH modeling group [8]: significantly decreased; also recorded: significantly reduce
- IL-10 relative expression level in gastric mucosa vs ZH modeling group [8]: increased without a statistical difference
- effect on the diversity of the gastric flora (mouse gastric flora; ZP group compared with ZA group): no significant effect
- decrease of relative abundance of Helicobacter pylori compared with ZH group (mouse gastric flora; after 4 weeks of treatment): 9.46%
- gastric flora with significant increases at the genus level (LEfSe, LDA>3) (mouse gastric flora; after 4 weeks of treatment): Prevotella, Lactobacillus, Faecalibaculum, Olsenella, Aerococcus
- Chao1 (alpha diversity) (mouse gastric flora; [9]): 464.56
- Observed species (alpha diversity) (mouse gastric flora; [9]): 453.6
- Shannon (alpha diversity) (mouse gastric flora; [9]): 6.139
- Simpson (alpha diversity) (mouse gastric flora; [9]): 0.9287
- Helicobacter in the stomach (mouse gastric flora; genus level): significantly inhibit
- content / growth of Lactobacillus in the stomach (mouse gastric flora; genus level): improved; also recorded: significantly promote the growth
- relative abundance of Lactobacillus in gastric microbiota (mouse gastric flora; genus level): 22.39%
- proportion of Proteobacteria in gastric flora vs ZH group (mouse gastric flora; phylum level): significantly decreased
- ratio of Bacteroides to Firmicutes in gastric flora (mouse gastric flora; phylum level): increased

Structure (SMILES): CC1(C)S[C@@H]2[C@H](NC(=O)[C@H](N)c3ccc(O)cc3)C(=O)N2[C@H]1C(=O)O [Amoxicillin]
- Sensitivity of H. pylori ZJC03 to antibiotics (H. pylori ZJC03 [1]): 0.016 µg/mL

Structure (SMILES): CC(O)C(=O)O (stereo not shown) [lactic acid]
- Inhibition zone diameter (H. pylori ZJC03 [2]; 10 mg/mL solution): no visible inhibition zone
